{"source": "patent US12070443B2", "about": "“Methods of treating and preventing breast cancer with S-equol” (The Board of Regents of the University of Texas System, priority 2018, dated 2024)", "key": {"[1]": {"test_system": "MDA-MB-231 cell-derived xenograft tumor", "experiment": "MDA-MB-231 xenograft in athymic nude mice", "type": "in vivo", "protocol": "Further work in a preclinical animal model supports the notion of using S-equol to treat TNBC breast cancer. In immunocompromised mouse xenograft experiments, which used MDA-MB-231, a human TNBC breast cancer cell line, growth of tumors was suppressed by 60% with S-equol treatment compared to control. 5×10^6 MDA-MB-231 cells were injected orthotopically into mammary gland fat pads of 6 week-old female athymic nude mice (Harlan). When the tumor masses reached 50 to 80 mm^3 (about one week after the inoculation), the mice were given daily subcutaneous injections of S-equol (20 or 60 mg/kg per day) or PBS as a vehicle control. Tumor development was followed by caliper measurements along two orthogonal axes: length (L) and width (W) and volume (V) was estimated by the formula V=[L×(W^2)]/2. Xenograft tumors harvested from mice were fixed in 10% neutral-buffered formalin, dehydrated, embedded in paraffin, and sectioned at 3 μm thickness. Representative tumor sections from vehicle control and S-equol-treated mice were tested for Ki-67 expression to assess cell proliferation, and for ERβ pY36. Statistical significance in the experiments was assessed by two-tailed Student's t test. In all assays, p<0.05 was considered statistically significant. See, Yuan et al. 2016 listed below, which is incorporated by reference herein for all purposes."}, "[2]": {"test_system": "AT3 mammary tumor cell line", "experiment": "AT3 mammary tumor challenge in mice, S-equol and/or anti-PD-1", "type": "in vivo", "details": "AT3 tumors", "protocol": "The following three murine mammary tumor lines were tested to determine the effects of a PD-1 inhibitor, S-equol and a combination of the two therapies on tumor growth: (1) E0771 (B6 background), (2) AT-3 (B6 background), and (3) 4T1 (BalbC background). This experimental design includes four arms (using AT-3 as an example): (1) controls, (2) αPD-1, (3) S-equol, and (4) αPD-1+S-equol (FIG. 3) by injecting into mice 2×10^5 cells subcutaneously into the 4th mammary gland fat pad."}, "[3]": {"molecular_target": "T1, ERβ pY36 (Homo sapiens, UniProt Q92731)", "T1 construct": "MDA-MB-231, a human TNBC breast cancer cell line; endogenous in cells; host or cells: MDA-MB-231 (human TNBC line; also as xenograft tumours in athymic nude mice)", "T1 sequence (Q92731 whole entry)": "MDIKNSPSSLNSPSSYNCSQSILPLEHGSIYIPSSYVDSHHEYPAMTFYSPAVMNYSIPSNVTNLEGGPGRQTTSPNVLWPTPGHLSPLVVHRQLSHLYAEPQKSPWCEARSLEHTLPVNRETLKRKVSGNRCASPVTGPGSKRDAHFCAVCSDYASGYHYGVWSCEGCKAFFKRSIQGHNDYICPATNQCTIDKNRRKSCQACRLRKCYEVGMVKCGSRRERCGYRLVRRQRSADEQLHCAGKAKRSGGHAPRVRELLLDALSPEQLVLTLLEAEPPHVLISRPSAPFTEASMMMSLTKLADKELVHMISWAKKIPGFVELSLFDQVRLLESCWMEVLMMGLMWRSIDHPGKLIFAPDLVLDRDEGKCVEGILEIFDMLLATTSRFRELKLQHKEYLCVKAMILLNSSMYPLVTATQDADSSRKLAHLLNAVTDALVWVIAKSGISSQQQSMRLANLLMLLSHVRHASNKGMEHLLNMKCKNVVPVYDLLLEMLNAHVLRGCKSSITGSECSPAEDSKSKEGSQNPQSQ", "experiment": "pY36-specific phosphorylation signal in MDA-MB-231 cells", "type": "cell-based", "details": "MDA-MB-231 cells (FIG. 18A)"}, "[4]": {"test_system": "TNBC", "experiment": "Pilot biomarker clinical study of Ki67 in TNBC subjects", "type": "in vivo, human", "protocol": "A pilot biomarker clinical study was performed in 20 subjects with documented TNBC to determine the effect of the ERβ agonist S-equol on Ki67 an indicator of tumor cell proliferation. Tumor cell proliferation was measured by immunohistological staining for Ki-67. See, FIG. 13 for the outline of the protocol. Ki-67 is encoded by the gene MKI67 gene and is required to maintain individual mitotic chromosomes dispersed in the cytoplasm following nuclear envelope disassembly. Measuring the fraction of Ki-67-positive cells in a tumor is known to be a reliable parameter for assessing cancer patient prognosis. Subjects with TNBC are known to have very high levels of Ki67.\nPatients enrolled in the study received a history, physical, laboratory assessment, radiological imaging, and diagnostic biopsies. Immunohistochemistry (IHC) of Ki67 (proliferation marker), total ERβ, and pY36-ERβ (phosphorylated ERβ), B7H1 (also known as PDL-1) and BRCA1 (breast cancer 1, early onset) were conducted using core needle biopsy tissue samples prior to treatment. Patients were given oral S-equol 50 mg, twice daily for approximately two weeks (10-21 days) prior to the scheduled oncologic surgeries or start of primary systemic therapy. Tumor samples were obtained from the surgery or the two-week repeat core needle biopsy. Post-treatment IHC evaluation of Ki67, total ERβ, phosphorylated ERβ (pY36) and BRCA1 were obtained. Ki67 reduction is a validated surrogate marker of both short and long term hormonal therapy efficacy in trials of human breast cancer and was compared pre- and post-treatment with S-equol. […] A c-DNA microarray platform was also used to discover downstream transcriptional targets of ERβ resulting from activation by S-equol.\nWomen eligible for the study had newly diagnosed, previously untreated, triple negative breast cancer, with an intact primary breast tumor of any size. All stages of the disease were eligible. They took S-equol during the time they underwent standard preoperative evaluation or pre-therapeutic work-up for advanced disease, such as staging procedures or central line placement. If primary surgery was performed, tissue leftover after standard diagnostic evaluation was used for the two-week biomarker assessment. […] See, FIG. 9.\nA standard procedure for acquiring core biopsy with a Bard 14-gauge needle was utilized for determining TNBC prior to enrollment. Whenever possible, the tumor tissues used for IHC analyses were acquired at the same time as the diagnostic core biopsy. The tissue samples were sent for staining of total and pY36 ERβ and Ki67, and analyzed. Testing for ERα, PR, and HER-2 was performed using validated methods. TNBC tumors were defined as less than 5% nuclear staining of carcinoma cells for ERα and PR and either 0, 1, or 2+ staining for HER-2 by IHC. Whole-Genome DASL HT platform from Illumina, which is designed for gene expression profiling with extremely low input of RNA (50 pg), was used to interrogate paired FFPE tissue obtained before and after exposure to S-equol.\nThe primary analysis estimated the geometric mean change of the Ki67 expression from baseline to two weeks. This was performed using a one-sample t-test of the pre/post differences in the log-transformed data, and summarized by the 95% confidence interval. […]"}, "[5]": {"test_system": "TNBC", "details": "cited from earlier work"}, "[6]": {"test_system": "Ki67 expression", "details": "after two weeks, IMPACT trial; cited from earlier work"}, "[7]": {"details": "of 17 evaluable patients, S-equol 50 mg twice daily"}}, "note": "“Also recorded” adds a separate entry of the source. Like-named read-outs stand apart in the source and are kept apart here.", "data": [{"molecule": "Oc1ccc([C@H]2COc3cc(O)ccc3C2)cc1", "note": "[S-equol]", "values": [{"measurement": "growth of tumors suppressed compared to control", "setting": "[1]; daily subcutaneous S-equol 20 or 60 mg/kg per day", "value": 60, "unit": "%"}, {"measurement": "xenograft tumor growth", "setting": "[1]; in words (FIGS. 8, 15, 18B)", "value": "inhibits tumor growth in vivo; also recorded: reduces the growth of TNBC cells; also recorded: inhibited"}, {"measurement": "tumor size", "setting": "[2]; excised tumors (FIG. 4C)", "value": "reduce tumor size compared to control"}, {"measurement": "tumor weight", "setting": "[2]; anti-PD-1 200 μg every 3 days, S-equol 50 mg/kg per day (FIG. 4B)", "value": "reduce tumor weight compared to control"}, {"measurement": "tumor volume", "setting": "[2]; anti-PD-1 200 μg every 3 days, S-equol 50 mg/kg per day, over 35 days post-challenge (FIG. 4A)", "value": "reduce tumor volume compared to control"}, {"measurement": "pY36-specific phosphorylation signal", "setting": "[3]", "value": "enhanced"}, {"measurement": "patients with 0-20% reduction in Ki-67", "setting": "[4]; [7]", "value": 7, "unit": "patients"}, {"measurement": "patients with greater than 20% reduction in Ki-67", "setting": "[4]; [7]", "value": "one"}, {"measurement": "patients with greater than 30% reduction in Ki-67", "setting": "[4]; [7]", "value": 4, "unit": "patients"}, {"measurement": "patients with no reduction in Ki-67", "setting": "[4]; [7]", "value": 5, "unit": "patients"}, {"measurement": "Ki67 change pre- vs post-treatment", "setting": "[4]; oral S-equol 50 mg twice daily, 10-21 days, TNBC patients", "value": "measurable decrease in Ki67; also recorded: measurable decline in Ki67"}]}, {"molecule": "avelumab: another αPD-L1 antibody", "values": [{"measurement": "response rate", "setting": "[5]; 168 TNBC tumors unselected for PD-L1 expression", "value": 8.6, "unit": "%"}]}, {"molecule": "atezolizumab: an αPD-L1 antibody", "values": [{"measurement": "response rate", "setting": "[5]; 21 evaluable PD-L1 expressing TNBC tumors", "value": 19, "unit": "%"}]}, {"molecule": "pembrolizumab: an αPD-1 antibody", "values": [{"measurement": "response rate", "setting": "[5]; Phase 1, 27 women, pretreated chemotherapy resistant metastatic TNBC expressing PD-L1", "value": 18.4, "unit": "%"}]}, {"molecule": "CC/C(=C(\\c1ccccc1)c1ccc(OCCN(C)C)cc1)c1ccccc1", "note": "[tamoxifen]", "values": [{"measurement": "change in the geometric mean of Ki67 expression", "setting": "[6]", "value": "−59.5", "unit": "%"}]}, {"molecule": "CC(C)(C#N)c1cc(Cn2cncn2)cc(C(C)(C)C#N)c1", "note": "[anastrazole]", "values": [{"measurement": "change in the geometric mean of Ki67 expression", "setting": "[6]", "value": "−76", "unit": "%"}]}]}
